ChEMBL document CHEMBL2424549, “Design, synthesis and biological evaluation of 4-(1-(4(sulphanilamide)phenyl)-3-(methyl)-1H-pyrazol-5-yl)dine urea and N-acyl derivatives as a soluble epoxide hydrolase inhibitors” (Med Chem Res, 2013)

Experiments:
[1] = molecular target: T1, Bifunctional epoxide hydrolase 2 (Homo sapiens) (UniProt P34913); assay: Inhibition of human recombinant soluble epoxide hydrolase using (3-phenyl-oxiranyl)-acetic acid cyano-(6-methoxy-naphtalen-2-yl)-methyl ester as substrate at 100 uM incubated for 15 mins prior to substrate addition by fluorescence assay
T1 sequence (whole entry): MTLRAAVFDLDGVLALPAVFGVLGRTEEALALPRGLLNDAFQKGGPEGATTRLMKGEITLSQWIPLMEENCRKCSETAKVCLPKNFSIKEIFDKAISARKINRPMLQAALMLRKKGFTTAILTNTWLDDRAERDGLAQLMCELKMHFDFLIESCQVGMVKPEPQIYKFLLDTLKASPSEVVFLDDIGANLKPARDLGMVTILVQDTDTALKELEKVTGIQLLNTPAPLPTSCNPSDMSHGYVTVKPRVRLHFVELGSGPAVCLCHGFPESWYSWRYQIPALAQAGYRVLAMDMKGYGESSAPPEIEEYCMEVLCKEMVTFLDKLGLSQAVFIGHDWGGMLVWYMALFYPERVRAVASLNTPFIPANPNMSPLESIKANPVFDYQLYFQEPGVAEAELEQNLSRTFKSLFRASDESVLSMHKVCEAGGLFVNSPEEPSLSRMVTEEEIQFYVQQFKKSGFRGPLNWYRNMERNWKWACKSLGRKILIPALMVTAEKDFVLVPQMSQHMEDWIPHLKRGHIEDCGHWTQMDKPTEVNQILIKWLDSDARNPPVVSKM

[2] = molecular target: T2, Bifunctional epoxide hydrolase 2 (Homo sapiens, UniProt P34913); assay: Inhibition of human recombinant soluble epoxide hydrolase using (3-phenyl-oxiranyl)-acetic acid cyano-(6-methoxy-naphtalen-2-yl)-methyl ester as substrate incubated for 15 mins prior to substrate addition by fluorescence assay
T2 sequence (P34913 whole entry): T1 sequence (whole entry)

Row | SMILES | inhibition [1] [%] | IC50 [2] [µM]
1 | Cc1cc(C2CCN(C(=O)NC3CCCCC3)CC2)n(-c2ccc(S(N)(=O)=O)cc2)n1 | 99 | 0.275
2 | Cc1cc(C2CCN(C(=O)c3ccc(Cl)cc3)CC2)n(-c2ccc(S(N)(=O)=O)cc2)n1 | 32.5 | –
3 | CCc1ccccc1NC(=O)N1CCC(c2cc(C)nn2-c2ccc(S(C)(=O)=O)cc2)CC1 | 54 | –
4 | Cc1cc(C2CCN(C(=O)Nc3ccccc3Cl)CC2)n(-c2ccc(S(C)(=O)=O)cc2)n1 | 54 | –
5 | Cc1cc(C2CCN(C(=O)Nc3ccccc3Cl)CC2)n(-c2ccc(S(N)(=O)=O)cc2)n1 | 54 | –
6 | Cc1ccc(C(=O)N2CCC(c3cc(C)nn3-c3ccc(S(N)(=O)=O)cc3)CC2)cc1 | 0 | –
7 | Cc1cc(C2CCN(C(=O)Nc3ccccc3)CC2)n(-c2ccc(S(C)(=O)=O)cc2)n1 | 89.9 | 0.22
8 | Cc1cc(C2CCN(C(=O)c3ccccc3)CC2)n(-c2ccc(S(N)(=O)=O)cc2)n1 | 57.2 | –
9 | Cc1cc(C2CCN(C(=O)NC(C)C)CC2)n(-c2ccc(S(C)(=O)=O)cc2)n1 | 45.4 | 13.6
10 | CCCCNC(=O)N1CCC(c2cc(C)nn2-c2ccc(S(C)(=O)=O)cc2)CC1 | 99.5 | 0.269
11 | Cc1cc(C2CCN(C(=O)Nc3ccccc3)CC2)n(-c2ccc(S(N)(=O)=O)cc2)n1 | 92.7 | 16.7
12 | Cc1cc(C2CCN(C(=O)NCCc3ccccc3)CC2)n(-c2ccc(S(C)(=O)=O)cc2)n1 | 54 | –
13 | Cc1cc(C2CCN(C(=O)NC3CCCCC3)CC2)n(-c2ccc(S(C)(=O)=O)cc2)n1 | 114 | 3.47
14 | Cc1cc(C2CCN(C(=O)c3ccc([N+](=O)[O-])cc3)CC2)n(-c2ccc(S(C)(=O)=O)cc2)n1 | 54 | –

Next, values leading:

Row | inhibition [1] [%] | IC50 [2] [µM] | SMILES
15 | 54 | – | Cc1ccc(NC(=O)N2CCC(c3cc(C)nn3-c3ccc(S(C)(=O)=O)cc3)CC2)cc1
16 | 23.3 | – | CCNC(=O)N1CCC(c2cc(C)nn2-c2ccc(S(N)(=O)=O)cc2)CC1
17 | 54 | – | Cc1cc(C2CCN(C(=O)c3ccc(Cl)cc3)CC2)n(-c2ccc(S(C)(=O)=O)cc2)n1
18 | 94.2 | – | Cc1cc(C2CCN(C(=O)NCc3ccccc3)CC2)n(-c2ccc(S(C)(=O)=O)cc2)n1
19 | 69.2 | – | Cc1cc(C2CCN(C(=O)NCc3ccccc3)CC2)n(-c2ccc(S(N)(=O)=O)cc2)n1
20 | 42.1 | – | Cc1ccc(C(=O)N2CCC(c3cc(C)nn3-c3ccc(S(C)(=O)=O)cc3)CC2)cc1
21 | 15.2 | – | COc1ccc(C(=O)N2CCC(c3cc(C)nn3-c3ccc(S(C)(=O)=O)cc3)CC2)cc1
22 | 54 | – | Cc1cc(C2CCN(C(=O)Nc3ccc(Cl)cc3)CC2)n(-c2ccc(S(C)(=O)=O)cc2)n1
23 | 54 | – | CCCNC(=O)N1CCC(c2cc(C)nn2-c2ccc(S(C)(=O)=O)cc2)CC1
24 | 54 | – | Cc1cc(C2CCN(C(=O)c3ccccc3)CC2)n(-c2ccc(S(C)(=O)=O)cc2)n1
25 | 0 | – | Cc1cc(C2CCN(C(=O)c3ccc([N+](=O)[O-])cc3)CC2)n(-c2ccc(S(N)(=O)=O)cc2)n1
26 | 32.9 | – | COc1ccc(C(=O)N2CCC(c3cc(C)nn3-c3ccc(S(N)(=O)=O)cc3)CC2)cc1
27 | 82 | 10.1 | CCCCNC(=O)N1CCC(c2cc(C)nn2-c2ccc(S(N)(=O)=O)cc2)CC1
28 | 68.7 | – | CCCC(=O)N1CCC(c2cc(C)nn2-c2ccc(S(N)(=O)=O)cc2)CC1
29 | 54 | – | CCCC(=O)N1CCC(c2cc(C)nn2-c2ccc(S(C)(=O)=O)cc2)CC1
30 | 105 | 22.3 | Cc1cc(C2CCN(C(=O)NC(C)C)CC2)n(-c2ccc(S(N)(=O)=O)cc2)n1
31 | 54 | – | CCNC(=O)N1CCC(c2cc(C)nn2-c2ccc(S(C)(=O)=O)cc2)CC1
32 | 68.6 | – | CCCNC(=O)N1CCC(c2cc(C)nn2-c2ccc(S(N)(=O)=O)cc2)CC1
33 | 105 | 0.224 | Cc1ccc(NC(=O)N2CCC(c3cc(C)nn3-c3ccc(S(N)(=O)=O)cc3)CC2)cc1
